Measurements from patent US6060481A, “Method for improving insulin sensitivity using an adenosine receptor antagonist” (priority 1999, dated 2000).

Assays:
[1] = target: T1, human A1 adenosine receptor (Homo sapiens, UniProt P30542); experiment: Binding constants against cloned and expressed human adenosine receptor subtypes (A1); settings: read-out: Binding constant (KD) A1
T1 construct: expressed in transfected cells
T1 sequence (P30542 1-326): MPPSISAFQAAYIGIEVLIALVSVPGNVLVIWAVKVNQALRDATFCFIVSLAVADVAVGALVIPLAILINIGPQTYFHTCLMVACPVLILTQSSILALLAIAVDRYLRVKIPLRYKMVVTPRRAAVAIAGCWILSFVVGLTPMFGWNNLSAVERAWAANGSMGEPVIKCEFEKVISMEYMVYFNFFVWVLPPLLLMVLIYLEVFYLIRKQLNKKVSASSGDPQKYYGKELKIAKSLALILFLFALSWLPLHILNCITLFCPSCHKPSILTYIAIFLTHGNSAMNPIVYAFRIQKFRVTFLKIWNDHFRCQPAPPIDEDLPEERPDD

[2] = test system: protein tyrosine phosphatases in WGA eluates; settings: 1 mM in the buffers
Description: The procedure was modified by decreasing the length of autoradiographic exposure to increase sensitivity. ^32 P-poly Glu:Tyr4:1 substrate was incorporated into the 100% SDS polyacrylamide gel prior to polymerization. WGA eluates which were run on the gels were concentrated on Centricon filters to approximately 2 mg/ml. Aliquots (100 μg) were run on the gels. Gels were washed overnight to remove SDS. The proteins were first fully denatured in 6M guanidine HCl and then, after electrophoresis, renatured by incubation in phosphatase assay buffers containing 0.04% Tween® 40 and high concentrations of dithiothreitol (DTT). Next, the gels were dried and exposed to Kodak X-Omat x-ray film at -70° C. for various times. […] In some experiments, concentrated WGA eluates were treated with the antibody anti-PTPase 1B (5 g) prior to assaying phosphatase activity. The antibody was added to 50 μl concentrated eluate and the sample was incubated for 1 h on a tube vortexer at room temperature. Fifty μl of 50% protein A Agarose were centrifuged in a separate tube at 14,000 g for 30 sec. The supernatant was removed, and at the end of 1 h, the WGA eluate was introduced to the agarose precipitate and vortexing was continued for an additional 30 min. As a control, WGA eluates that were not treated with antibody were also introduced to the gels. […]

Compound | Kd [1] [µM] | PTPase bands in in-gel assay [2]
CCCn1c(=O)[nH]c(=O)c2[nH]cnc21 [Enprofylline, 3-n-propylxanthine] | 156 | 
sodium vanadate |  | Bands disappeared
